# Data taken from PubChem BioAssay (NCI).
#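 Abbreviation: GI50, concentration required for 50% inhibition of growth. TGI denotes the concentration required for complete inhibition of growth.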
# Experiments:
# Test in all cases: growth of human tumour cells (NCI), 384-well format
# [1] = system: PC-3 prostate
# [2] = system: T-47D breast
# [3] = system: UO-31 renal
# [4] = system: OVCAR-5 ovarian
# [5] = system: NCI-H23 lung
# [6] = system: MDA-MB-468 breast
# [7] = system: HCT-15 colon
# [8] = system: HOP-92 NSCLC
# [9] = system: SF-268 CNS
# [10] = system: SN12C renal
# [11] = system: MALME-3M melanoma
# [12] = system: MOLT-4 leukemia
# [13] = system: MDA-MB-435 melanoma
# [14] = system: DU-145 prostate
# [15] = system: K-562 leukemia
# [16] = system: OVCAR-8 ovarian
# [17] = system: SNB-19 CNS
# [18] = system: U251 glioblastoma
# [19] = system: NCI/ADR-RES ovarian
# [20] = system: A498 renal
# [21] = system: M14 melanoma
# [22] = system: SK-MEL-28 melanoma
# [23] = system: MCF7 breast
# [24] = system: HS 578T breast
# [25] = system: HCT-116 colon
# [26] = system: HOP-62 NSCLC
# [27] = system: NCI-H522 lung
# [28] = system: UACC-62 melanoma
# [29] = system: CCRF-CEM leukemia
# [30] = system: OVCAR-3 ovarian
# [31] = system: MDA-MB-231 breast
# [32] = system: SK-OV-3 ovarian
# [33] = system: ACHN renal
# [34] = system: LOX IMVI melanoma
# [35] = system: SK-MEL-2 melanoma
# [36] = system: HL-60(TB) leukemia
# [37] = system: CAKI-1 renal
# [38] = system: BT-549 breast
# [39] = system: 786-0 renal
# [40] = system: A549 NSCLC
# [41] = system: NCI-H460 NSCLC
# [42] = system: RPMI-8226 leukemia
# [43] = system: NCI-H226 lung
# [44] = system: OVCAR-4 ovarian
# [45] = system: COLO 205 colon
# [46] = system: SF-539 CNS
# [47] = system: HT29 colon
# [48] = system: TK-10 renal
# [49] = system: RXF 393 renal
# [50] = system: SW-620 colon
# [51] = system: IGROV1 ovarian
# [52] = system: HCC-2998 colon
# [53] = system: KM12 colon
# [54] = system: EKVX NSCLC
# [55] = system: UACC-257 melanoma
# [56] = system: NCI-H322M lung
# [57] = system: SF-295 CNS
# [58] = system: SK-MEL-5 melanoma
# [59] = system: SNB-75 CNS
smiles,measurement,setting,value
Nc1nc(F)nc2c1ncn2C1OC(COP(=O)(O)O)C(O)C1O (centres undefined),GI50,[1],37.6 µM
same,GI50,[2],83 µM
same,GI50,[3],30.6 µM
same,GI50,[4],57.5 µM
same,GI50,[5],11.7 µM
same,TGI,[5],32.9 µM
same,GI50,[6],71 µM
same,GI50,[7],39.9 µM
same,GI50,[8],30.9 µM
same,GI50,[9],48.3 µM
same,GI50,[10],4.96 µM
same,TGI,[10],21.8 µM
same,GI50,[11],25.1 µM
same,GI50,[12],1.53 µM
same,TGI,[12],2.89 µM
same,GI50,[13],49.9 µM
same,GI50,[14],21.6 µM
same,TGI,[14],93.8 µM
same,GI50,[15],58.4 µM
same,GI50,[16],3.16 µM
same,TGI,[16],15.8 µM
same,GI50,[17],20.6 µM
same,GI50,[18],90.2 µM
same,GI50,[19],4.74 µM
same,TGI,[19],41.2 µM
same,GI50,[20],31.2 µM
same,GI50,[21],8.5 µM
same,TGI,[21],37.3 µM
same,GI50,[22],7.83 µM
same,GI50,[23],41.2 µM
same,GI50,[24],55 µM
same,GI50,[25],19.3 µM
same,GI50,[26],5.8 µM
same,TGI,[26],21.2 µM
same,GI50,[27],59.7 µM
same,GI50,[28],23.2 µM
same,TGI,[28],54.1 µM
same,GI50,[29],1.91 µM
same,TGI,[29],3.57 µM
same,GI50,[30],58.4 µM
same,GI50,[31],32.9 µM
same,GI50,[32],24 µM
same,GI50,[33],32.9 µM
same,GI50,[34],45.4 µM
same,GI50,[35],51.7 µM
same,TGI,[35],84.5 µM
same,GI50,[36],3.71 µM
same,TGI,[36],11 µM
same,GI50,[37],25.3 µM
same,GI50,[38],20 µM
same,TGI,[38],96.9 µM
same,GI50,[39],33 µM
same,GI50,[40],36.1 µM
CNC(=O)c1ccc(Nc2nc(OC3CCCC3)c3c(-c4ccc5nc(C)oc5c4)c[nH]c3n2)c(OC)c1,GI50,[1],0.896 µM
same,TGI,[1],15.2 µM
same,GI50,[2],0.25 µM
same,TGI,[2],> 100 µM
same,GI50,[41],0.0348 µM
same,TGI,[41],1.71 µM
same,GI50,[3],0.0898 µM
same,TGI,[3],> 100 µM
same,GI50,[4],0.146 µM
same,TGI,[4],> 100 µM
same,GI50,[5],0.0643 µM
same,TGI,[5],0.615 µM
same,GI50,[6],0.0454 µM
same,TGI,[6],0.226 µM
same,GI50,[42],0.0618 µM
same,TGI,[42],0.271 µM
same,GI50,[7],0.0375 µM
same,TGI,[7],2.84 µM
same,GI50,[8],0.681 µM
same,TGI,[8],9.34 µM
same,GI50,[9],0.0185 µM
same,TGI,[9],0.0727 µM
same,GI50,[10],0.224 µM
same,TGI,[10],2.76 µM
same,GI50,[43],0.381 µM
same,TGI,[43],9.7 µM
same,GI50,[44],1.9 µM
same,TGI,[44],17.7 µM
same,GI50,[11],0.0936 µM
same,TGI,[11],14.2 µM
same,GI50,[12],0.0118 µM
same,TGI,[12],0.0304 µM
same,GI50,[13],11 µM
same,TGI,[13],49.1 µM
same,GI50,[14],0.0743 µM
same,TGI,[14],15.8 µM
same,GI50,[15],0.121 µM
same,TGI,[15],19.4 µM
same,GI50,[16],0.0458 µM
same,TGI,[16],12.5 µM
same,GI50,[17],0.225 µM
same,TGI,[17],41.6 µM
same,GI50,[45],0.0331 µM
same,TGI,[45],0.233 µM
same,GI50,[18],0.063 µM
same,TGI,[18],16 µM
same,GI50,[19],0.316 µM
same,TGI,[19],60.5 µM
same,GI50,[20],0.239 µM
same,TGI,[20],9.43 µM
same,GI50,[46],0.0476 µM
same,TGI,[46],1.84 µM
same,GI50,[21],0.0843 µM
same,TGI,[21],63.8 µM
same,GI50,[22],5.58 µM
same,TGI,[22],30.5 µM
same,GI50,[47],0.0845 µM
same,TGI,[47],> 100 µM
same,GI50,[23],0.13 µM
same,TGI,[23],15.7 µM
same,GI50,[24],0.0775 µM
same,TGI,[24],0.891 µM
same,GI50,[25],0.0467 µM
same,TGI,[25],11 µM
same,GI50,[48],0.626 µM
same,TGI,[48],> 100 µM
same,GI50,[26],0.0376 µM
same,TGI,[26],5.77 µM
same,GI50,[49],0.106 µM
same,TGI,[49],1.96 µM
same,GI50,[50],0.0535 µM
same,TGI,[50],0.762 µM
same,GI50,[51],0.145 µM
same,TGI,[51],15.8 µM
same,GI50,[27],0.0998 µM
same,TGI,[27],1.44 µM
same,GI50,[28],0.167 µM
same,TGI,[28],96.4 µM
same,GI50,[29],0.0226 µM
same,TGI,[29],0.0445 µM
same,GI50,[52],24.5 µM
same,TGI,[52],> 100 µM
same,GI50,[53],0.0817 µM
same,TGI,[53],> 100 µM
same,GI50,[54],0.187 µM
same,TGI,[54],15.3 µM
same,GI50,[30],0.169 µM
same,TGI,[30],0.965 µM
same,GI50,[31],0.29 µM
same,TGI,[31],> 100 µM
same,GI50,[32],0.352 µM
same,TGI,[32],5.28 µM
same,GI50,[55],0.328 µM
same,TGI,[55],47.3 µM
same,GI50,[56],0.593 µM
same,TGI,[56],52.8 µM
same,GI50,[33],0.0878 µM
same,TGI,[33],15.5 µM
same,GI50,[57],0.265 µM
same,TGI,[57],> 100 µM
same,GI50,[58],0.0735 µM
same,TGI,[58],1.55 µM
same,GI50,[34],0.0454 µM
same,TGI,[34],14.2 µM
same,GI50,[59],0.0686 µM
same,TGI,[59],1.78 µM
same,GI50,[36],0.0408 µM
same,TGI,[36],1.31 µM
same,GI50,[37],0.387 µM
same,TGI,[37],3.29 µM
same,GI50,[38],0.0949 µM
same,TGI,[38],65.1 µM
same,GI50,[39],0.065 µM
same,TGI,[39],14.2 µM
same,GI50,[40],0.0223 µM
same,TGI,[40],2.89 µM
